According to patent EP2471783A1, “Novel polymorphic form of efavirenz” (Esteve Química, S.A., priority 2010, dated 2012):

Key:
[1] = Comparative and competitive slurry experiments (mixtures of forms, followed by powder X-ray diffraction); format: physicochemical
Experimental: Mixtures of Efavirenz form I with form III or form C were prepared according to table II. The suspensions were stirred at 20°C with small PTFE coated cross-shaped magnetic stirrers and samples taken after 1, 2 and 7 days, filtered, dried at ambient temperature under vacuum for 20 minutes and analyzed by powder X-ray diffraction.

[2] = Dissolution studies in heptane (solubility curve, dissolution point by turbidity); format: physicochemical; settings: for Dissolution Temperatures: in heptane, heating ramp 0.2°C/min, 10% reduction in turbidity; for solubility in heptane, compared between forms: temperature range studied 17-82°C
Experimental: To determine the solubility curve of a given polymorphic form, different concentrations in heptane were prepared and charged to a HEL multi-reactor, using 100 mL vessels. These reactors were equipped with 4-blade PTFE turbines, (set to 150 rpm), temperature probes and turbidity probes. Temperature was controlled by applying the same re-circulating heater-chiller unit to all vessel jackets and using individual temperature compensation by external heating plates below each vessel. Heating ramps of 0.2°C/min were applied to each vessel, and the dissolution point determined by a 10% reduction in turbidity. […] Table VI. Results for solubility in heptane

[3] = Dissolution studies in ethanol-water (volume of ethanol required for dissolution of an aqueous suspension); format: physicochemical; settings: suspension in water 20 mL with DSS 0.02 g, 20°C, ethanol added at 0.2 mL/min, 50% reduction in turbidity
Experimental: Dissolution experiments were performed for forms I, III and C of Efavirenz. To an aqueous suspension of each form, ethanol was added and the volume recorded in order for dissolution. Efavirenz is hydrophobic and has a tendency to float in water. To improve the dispersion of efavirenz in water, a surfactant was used, namely, docusate sodium (DSS), the dioctyl ester of sodium sulfosuccinate. DSS is a widely used pharmaceutical excipient and food additive. Efavirenz, polymorphic form and quantity as indicated in the table V, was suspended in water (milliQ, 20 mL) with DSS (docusate sodium, 0.02 g) in a 100 mL vessel. This mixture was placed in an ultrasonic batch for 5 minutes to break up any agglomerates and then the vessel was transferred to an automated (HEL) reaction block equipped with pitched 4-blade turbine PTFE agitators (set to 120 rpm), turbidity probes and syringe pumps. The temperature inside the vessels was controlled by jackets connected to a re-circulating heater-chiller unit. The mixtures were agitated at 20°C and turbidity probes adjusted before addition of ethanol at a continuous rate of 0.2 mL/min via the syringe pumps. The volume of ethanol required for dissolution was taken as that required for a 50% reduction in the turbidity reading. […]

[4] = Accelerated stability conditions; format: physicochemical
Excerpt: Thus, in one aspect, the present invention is directed to a polymorphic form C of Efavirenz characterized by an X-ray powder diffraction pattern which comprises characteristic 2θ values at: 7.1, 7.3, 11.0, 13.8, 14.2, 14.6, 19.1, 20.9, 21.2, 24.5 and 24.9 ± 0.2 degrees 2θ.

[5] = cited from earlier work
[6] = slurry in ethanol/water, 20°C, samples after 1, 2 and 7 days

## O=C1Nc2ccc(Cl)cc2[C@@](C#CC2CC2)(C(F)(F)F)O1 [Form I, (4S)-6-chloro-4-(cyclopropylethynyl)-4-(trifluoromethyl)-1,4-dihydro-2H-3,1-benzoxazin-2-one]
[1]; [6]
  content of form I in a mixture of form I and form III: decreases with time, and after 7 days the mixture has converted completely to form III
[2]; concentration 0,010 g/mL
  Dissolution Temperatures: 29 °C
[2]; concentration 0,040 g/mL
  Dissolution Temperatures: 64 °C
[2]; concentration 0,067 g/mL
  Dissolution Temperatures: 74 °C
[2]; concentration 0,200 g/mL
  Dissolution Temperatures: 82 °C
[2]
  solubility in heptane, compared between forms: less soluble at high temperature

## O=C1Nc2ccc(Cl)cc2[C@@](C#CC2CC2)(C(F)(F)F)O1 [Form III, (4S)-6-chloro-4-(cyclopropylethynyl)-4-(trifluoromethyl)-1,4-dihydro-2H-3,1-benzoxazin-2-one]
[2]; concentration 0,010 g/mL
  Dissolution Temperatures: 31 °C
[2]; concentration 0,040 g/mL
  Dissolution Temperatures: 55 °C
[2]; concentration 0,067 g/mL
  Dissolution Temperatures: 62 °C
[2]; concentration 0,180 g/mL
  Dissolution Temperatures: 75 °C
[2]
  solubility in heptane, compared between forms: less soluble at low temperature

## O=C1Nc2ccc(Cl)cc2[C@@](C#CC2CC2)(C(F)(F)F)O1 [Form C, (4S)-6-chloro-4-(cyclopropylethynyl)-4-(trifluoromethyl)-1,4-dihydro-2H-3,1-benzoxazin-2-one]
[3]
  volume of ethanol required to achieve dissolution, compared between forms: consistently requires less volume of ethanol than forms I and III
[1]; form C in its pure form, without any contamination with form I
  conversion of form C into form I: not observed
[1]; [6]
  content of form C in a mixture of form I and form C: decreases with time, although some still remains in the mixture after 7 days
[1]; slurry in methanol/water, 20°C, samples after 1, 2 and 7 days
  content of form C in a mixture of form I and form C: a similar trend is observed although the transformation is slower
[2]; concentration 0,010 g/mL
  Dissolution Temperatures: 17 °C
[2]; concentration 0,040 g/mL
  Dissolution Temperatures: 49 °C
[2]; concentration 0,067 g/mL
  Dissolution Temperatures: 56 °C
[2]; concentration 0,200 g/mL
  Dissolution Temperatures: 71 °C
[2]
  solubility in heptane, compared between forms: more soluble in heptane than forms I and III
[4]; 25°C and 60% relative humidity
  stability: stable during at least three months
[4]; 40°C and 75% relative humidity
  stability: stable during at least three months

## O=C1Nc2ccc(Cl)cc2[C@@](C#CC2CC2)(C(F)(F)F)O1 [Efavirenz, (4S)-6-chloro-4-(cyclopropylethynyl)-4-(trifluoromethyl)-1,4-dihydro-2H-3,1-benzoxazin-2-one]
[5]
  aqueous solubility: extremely poor
